Assay [1] deals with T1, Carbonic anhydrase 2 (Bos taurus, UniProt P00921). Kind of assay: Carbonic Anhydrase II Inhibition Assay. The note with it: pH 7.4; 25 °C. As to the method:
In this assay, 4-nitrophenyl acetate (4-NPA), a colorless compound, was hydrolyzed to 4-nitrophenol and […]. The reaction was followed by measuring the formation of 4-nitrophenol, a yellow colored compound. The reaction was performed at 25 °C inbuffer containing HEPES and Tris-HCl at a total concentration of 20 mM and pH of 7.4 for each sample. The reaction mixture contained 140 μL of the HEPES-tris solution, 20 μL of freshly prepared aqueous solution of purified bovine erythrocyte CA-II (0.1 mg/mL of deionized water for 96-well), 20 μL of test compound in DMSO (10% final concentration), 20 μL of substrate 4-NPA at a concentration of 0.7 mM diluted in ethanol. The reaction was initiated by addition of 4-NPA after 15 min incubation of test compound, and each compound was tested 3-times at different concentrations. In this assay, the reaction was performed using 96-well plates.

Assay [2] addresses T1, Carbonic anhydrase 2. Kind of assay: Carbonic Anhydrase II Kinetic Assay. The following applies: pH 7.4. As to the method:
Kinetic studies were performed by using different concentration of inhibitors over different concentrations of substrate (4-NPA) such as 0.175, 0.35, 0.70 and 1.40 mM. The enzyme 0.2 mg/mL concentration for each well was used after dissolving in de-ionized water. HEPES-tris ammonia was used as buffer at pH of 7.4. The change in absorbance was measured by keeping the 96-well flat bottom plate in ELISA reader (Spectra max 384, Molecular Devices USA) after addition of substrate for a period of 30 min at 25 °C with 1 min interval.

By IC50 is commonly meant the concentration that gives 50% inhibition. A word on the Ki: it is a dissociation constant, usually derived from enzyme kinetics or from competition with a known ligand. The low end stands for tighter binding, the high end for weaker binding.

T1 sequence (P00921 whole entry): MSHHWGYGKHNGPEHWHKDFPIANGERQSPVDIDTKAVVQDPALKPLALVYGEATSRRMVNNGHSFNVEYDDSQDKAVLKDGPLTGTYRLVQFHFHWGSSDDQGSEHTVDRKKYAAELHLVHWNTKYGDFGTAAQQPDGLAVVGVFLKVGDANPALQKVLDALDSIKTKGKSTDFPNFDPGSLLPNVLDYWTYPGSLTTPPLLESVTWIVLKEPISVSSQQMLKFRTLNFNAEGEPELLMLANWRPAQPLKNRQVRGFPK

On Carbonic anhydrase 2 [1], `O=C(N/N=C/c1ccc([N+](=O)[O-])cc1)N/N=C/c1ccc([N+](=O)[O-])cc1` [N'',N'''-Bis[(E)-(4-nitrophenyl)methylidene]carbonic dihydrazide (1)] showed an IC50 of 1330 nM. For the same molecule, the Ki at Carbonic anhydrase 2 [2] is 2350 nM. With `O=C(N/N=C/c1ccc(Br)cc1)N/N=C/c1ccc(Br)cc1` [N'',N'''-Bis[(E)-(4-bromophenyl)methylidene]carbonic dihydrazide (4)], the IC50 at Carbonic anhydrase 2 [1] turned out to be 2320 nM. The molecule further yielded a Ki on Carbonic anhydrase 2 [2] of 2520 nM.

As for `O=C(N/N=C/c1ccccc1Br)N/N=C/c1ccccc1Br` [N'',N'''-Bis[(E)-(2-bromophenyl)methylidene]carbonic dihydrazide (5)], the IC50 at Carbonic anhydrase 2 [1] worked out at 3960 nM. Same read-out and setting: then `O=C(N/N=C/c1ccc(Cl)cc1Cl)N/N=C/c1ccc(Cl)cc1Cl` [N'',N'''-Bis[(E)-(2,4-dichlorophenyl)methylidene]carbonic dihydrazide (8)], with 2670 nM.

Regarding `O=C(N/N=C/c1c(Cl)cccc1Cl)N/N=C/c1c(Cl)cccc1Cl` [N'',N'''-Bis[(E)-(2,6-dichlorophenyl)methylidene]carbonic dihydrazide (9)], the IC50 at Carbonic anhydrase 2 [1] amounted to 1460 nM. On Carbonic anhydrase 2 [2], this molecule displayed a Ki of 1780 nM. For `O=C(N/N=C/c1ccccc1[N+](=O)[O-])N/N=C/c1ccccc1[N+](=O)[O-]` [N'',N'''-Bis[(E)-(2-nitrophenyl)methylidene]carbonic dihydrazide (2)] the same measures were 1850 nM and 1810 nM. `O=C(N/N=C/c1ccccc1Cl)N/N=C/c1ccccc1Cl` [N'',N'''-Bis[(E)-(2-chlorophenyl)methylidene]carbonic dihydrazide (7)] came in with an IC50 against Carbonic anhydrase 2 [1] of 2330 nM. For the same molecule, the Ki at Carbonic anhydrase 2 [2] amounted to 4120 nM. The corresponding values for `O=C(N/N=C/c1cc([N+](=O)[O-])ccc1Cl)N/N=C/c1cc([N+](=O)[O-])ccc1Cl` [N'',N'''-Bis[(E)-(2-chloro-5-nitrophenyl)methylidene]carbonic dihydrazide (3)] are 1370 nM and 3580 nM.

The record behind these values is BindingDB's records for doi:10.1016/j.bioorg.2017.03.014 (University of Karachi, 2017).
